Source: patent US9701792B2, “Composite compositions and methods of preparing and using same” (THE REGENTS OF THE UNIVERSITY OF COLORADO, A BODY CORPORATE, priority 2014, dated 2017)

Test: Volumetric shrinkage during photo-CuAAC reaction
Type: physicochemical
Conditions: monomer (2) and 4-pentyl-1-ol in chloroform; azide/alkyne to CuCl2/PMDETA/I819 50:50:1:1
Protocol: The volumetric shrinkage behavior during the photo-CuAAC reaction was measured using monomer (2) in FIGS. 3 and 4-pentyl-1-ol in chloroform (molar ratio of azide/alkyne to CuCl2/PMDETA/I819 as 50:50:1:1, the same as the bulk model system). […] In certain embodiments, the total shrinkage is lower in the CuAAC polymerization because the formed triazole concentration is less than the required methacrylate concentration. With appropriate fillers, the composite shrinkage may be reduced further.

CC(C)(c1ccc(OCC(O)CN=[N+]=[N-])cc1)c1ccc(OCC(O)CN=[N+]=[N-])cc1 (stereo not shown) [monomer (2), bisphenol A di(3-azido-2-hydroxypropan-1-ol) ether]
molar volume change per triazole formed: 22.2 mL/mol
